Measured values reported in ChEMBL document CHEMBL3046683, “Anti-inflammatory and analgesic activities of a new cucurbitacin isolated from Citrullus colocynthis seeds” (2013).

Tests used:
Rattus norvegicus [1] = test: Anti-inflammatory activity in Wistar Rattus norvegicus (rat) assessed as inhibition of carrageenan-induced paw edema at 1 mg/kg, ip administered 30 min prior to carrageenan-challenge measured at 3 hr by plethysmometric analysis relative to control; format: functional; conditions: route intraperitoneal
Rattus norvegicus [2] = test: Anti-inflammatory activity in Wistar Rattus norvegicus (rat) assessed as inhibition of carrageenan-induced paw edema at 1 mg/kg, ip administered 30 min prior to carrageenan-challenge measured at 1 hr by plethysmometric analysis relative to control; format: functional; conditions: route intraperitoneal
Rattus norvegicus [3] = test: Anti-inflammatory activity in Wistar Rattus norvegicus (rat) assessed as inhibition of carrageenan-induced paw edema at 1 mg/kg, ip administered 30 min prior to carrageenan-challenge measured at 4 hr by plethysmometric analysis relative to control; format: functional; conditions: route intraperitoneal
Rattus norvegicus [4] = test: Anti-inflammatory activity in Wistar Rattus norvegicus (rat) assessed as inhibition of carrageenan-induced paw edema at 1 mg/kg, ip administered 30 min prior to carrageenan-challenge measured at 6 hr by plethysmometric analysis relative to control; format: functional; conditions: route intraperitoneal
Rattus norvegicus [5] = test: Anti-inflammatory activity in Wistar Rattus norvegicus (rat) assessed as inhibition of carrageenan-induced paw edema at 1 mg/kg, ip administered 30 min prior to carrageenan-challenge measured at 5 hr by plethysmometric analysis relative to control; format: functional; conditions: route intraperitoneal
Rattus norvegicus [6] = test: Anti-inflammatory activity in Wistar Rattus norvegicus (rat) assessed as inhibition of carrageenan-induced paw edema at 1 mg/kg, ip administered 30 min prior to carrageenan-challenge measured at 2 hr by plethysmometric analysis relative to control; format: functional; conditions: route intraperitoneal
Mus musculus [7] = test: Analgesic activity in sc dosed Swiss albino Mus musculus (mouse) assessed as inhibition of acetic acid-induced writhing administered 30 min prior to acetic acid challenge measured for 30 min post acetic acid challenge relative to control; format: functional, organism-based
Rattus norvegicus [8] = test: Anti-inflammatory activity in Wistar Rattus norvegicus (rat) assessed as inhibition of carrageenan-induced paw edema at 0.5 mg/kg, ip administered 30 min prior to carrageenan-challenge measured at 1 hr by plethysmometric analysis relative to control; format: functional; conditions: route intraperitoneal
Rattus norvegicus [9] = test: Anti-inflammatory activity in Wistar Rattus norvegicus (rat) assessed as inhibition of carrageenan-induced paw edema at 0.1 mg/kg, ip administered 30 min prior to carrageenan-challenge measured at 2 hr by plethysmometric analysis relative to control; format: functional; conditions: route intraperitoneal
Rattus norvegicus [10] = test: Anti-inflammatory activity in Wistar Rattus norvegicus (rat) assessed as inhibition of carrageenan-induced paw edema at 0.1 mg/kg, ip administered 30 min prior to carrageenan-challenge measured at 6 hr by plethysmometric analysis relative to control; format: functional; conditions: route intraperitoneal
Mus musculus [11] = test: Analgesic activity in Swiss albino Mus musculus (mouse) assessed as inhibition of phenylbenzoquinone-induced writhing at 0.5 mg/kg, sc administered 30 min prior to acetic acid challenge measured for 30 min post phenylbenzoquinone challenge relative to control; format: functional; conditions: route subcutaneous
Mus musculus [12] = test: Analgesic activity in Swiss albino Mus musculus (mouse) assessed as inhibition of phenylbenzoquinone-induced writhing at 0.1 mg/kg, sc administered 30 min prior to acetic acid challenge measured for 30 min post phenylbenzoquinone challenge relative to control; format: functional; conditions: route subcutaneous
Rattus norvegicus [13] = test: Anti-inflammatory activity in Wistar Rattus norvegicus (rat) assessed as inhibition of carrageenan-induced paw edema at 0.5 mg/kg, ip administered 30 min prior to carrageenan-challenge measured at 3 hr by plethysmometric analysis relative to control; format: functional; conditions: route intraperitoneal
Rattus norvegicus [14] = test: Anti-inflammatory activity in ip dosed Wistar Rattus norvegicus (rat) assessed as inhibition of carrageenan-induced paw edema administered 30 min prior to carrageenan-challenge measured at 1 to 6 hr by plethysmometric analysis relative to control; format: functional, organism-based
Rattus norvegicus [15] = test: Anti-inflammatory activity in Wistar Rattus norvegicus (rat) assessed as inhibition of carrageenan-induced paw edema at 0.1 mg/kg, ip administered 30 min prior to carrageenan-challenge measured at 1 hr by plethysmometric analysis relative to control; format: functional; conditions: route intraperitoneal
Rattus norvegicus [16] = test: Anti-inflammatory activity in Wistar Rattus norvegicus (rat) assessed as inhibition of carrageenan-induced paw edema at 0.5 mg/kg, ip administered 30 min prior to carrageenan-challenge measured at 2 hr by plethysmometric analysis relative to control; format: functional; conditions: route intraperitoneal
Rattus norvegicus [17] = test: Anti-inflammatory activity in Wistar Rattus norvegicus (rat) assessed as inhibition of carrageenan-induced paw edema at 0.1 mg/kg, ip administered 30 min prior to carrageenan-challenge measured at 5 hr by plethysmometric analysis relative to control; format: functional; conditions: route intraperitoneal
Rattus norvegicus [18] = test: Anti-inflammatory activity in Wistar Rattus norvegicus (rat) assessed as inhibition of carrageenan-induced paw edema at 0.1 mg/kg, ip administered 30 min prior to carrageenan-challenge measured at 3 hr by plethysmometric analysis relative to control; format: functional; conditions: route intraperitoneal
Mus musculus [19] = test: Analgesic activity in Swiss albino Mus musculus (mouse) assessed as inhibition of acetic acid-induced writhing at 0.5 mg/kg, sc administered 30 min prior to acetic acid challenge measured for 30 min post acetic acid challenge relative to control; format: functional; conditions: route subcutaneous
Mus musculus [20] = test: Analgesic activity in Swiss albino Mus musculus (mouse) assessed as inhibition of acetic acid-induced writhing at 0.1 mg/kg, sc administered 30 min prior to acetic acid challenge measured for 30 min post acetic acid challenge relative to control; format: functional; conditions: route subcutaneous
Rattus norvegicus [21] = test: Anti-inflammatory activity in Wistar Rattus norvegicus (rat) assessed as inhibition of carrageenan-induced paw edema at 0.1 mg/kg, ip administered 30 min prior to carrageenan-challenge measured at 4 hr by plethysmometric analysis relative to control; format: functional; conditions: route intraperitoneal
Mus musculus [22] = test: Analgesic activity in Swiss albino Mus musculus (mouse) assessed as inhibition of phenylbenzoquinone-induced writhing at 0.05 mg/kg, sc administered 30 min prior to acetic acid challenge measured for 30 min post phenylbenzoquinone challenge relative to control; format: functional; conditions: route subcutaneous
Mus musculus [23] = test: Analgesic activity in sc dosed Swiss albino Mus musculus (mouse) assessed as inhibition of phenylbenzoquinone-induced writhing administered 30 min prior to acetic acid challenge measured for 30 min post phenylbenzoquinone challenge relative to control; format: functional, organism-based
Rattus norvegicus [24] = test: Anti-inflammatory activity in Wistar Rattus norvegicus (rat) assessed as inhibition of carrageenan-induced paw edema at 0.5 mg/kg, ip administered 30 min prior to carrageenan-challenge measured at 5 hr by plethysmometric analysis relative to control; format: functional; conditions: route intraperitoneal
Rattus norvegicus [25] = test: Anti-inflammatory activity in Wistar Rattus norvegicus (rat) assessed as inhibition of carrageenan-induced paw edema at 0.5 mg/kg, ip administered 30 min prior to carrageenan-challenge measured at 4 hr by plethysmometric analysis relative to control; format: functional; conditions: route intraperitoneal
Rattus norvegicus [26] = test: Anti-inflammatory activity in Wistar Rattus norvegicus (rat) assessed as inhibition of carrageenan-induced paw edema at 0.5 mg/kg, ip administered 30 min prior to carrageenan-challenge measured at 6 hr by plethysmometric analysis relative to control; format: functional; conditions: route intraperitoneal
Mus musculus [27] = test: Analgesic activity in Swiss albino Mus musculus (mouse) assessed as inhibition of acetic acid-induced writhing at 0.05 mg/kg, sc administered 30 min prior to acetic acid challenge measured for 30 min post acetic acid challenge relative to control; format: functional; conditions: route subcutaneous
Mus musculus [28] = test: Analgesic activity in Swiss albino Mus musculus (mouse) assessed as inhibition of phenylbenzoquinone-induced writhing at 200 mg/kg, sc administered 30 min prior to acetic acid challenge measured for 30 min post phenylbenzoquinone challenge relative to control; format: functional; conditions: route subcutaneous
Mus musculus [29] = test: Analgesic activity in Swiss albino Mus musculus (mouse) assessed as inhibition of acetic acid-induced writhing at 200 mg/kg, sc administered 30 min prior to acetic acid challenge measured for 30 min post acetic acid challenge relative to control; format: functional; conditions: route subcutaneous

Question: How did the inhibition in vivo at 1 mg/kg (Rattus norvegicus [1]) turn out when `C[C@@H]1C[C@H]2[C@@H]3CCC4=CC(=O)C=C[C@]4(C)[C@@]3(F)[C@@H](O)C[C@]2(C)[C@@]1(O)C(=O)CO` [DEXAMETHASONE] was run?
Answer: The inhibition in vivo at 1 mg/kg was 45%.

Question: What about the inhibition in vivo at 1 mg/kg (Rattus norvegicus [2]) of the same compound?
Answer: The inhibition in vivo at 1 mg/kg was 29%.

Question: And the inhibition in vivo at 1 mg/kg (Rattus norvegicus [3])?
Answer: Its inhibition in vivo at 1 mg/kg is 71%.

Question: And the inhibition in vivo at 1 mg/kg (Rattus norvegicus [4])?
Answer: The inhibition in vivo at 1 mg/kg was 89%.

Question: And the inhibition in vivo at 1 mg/kg (Rattus norvegicus [5])?
Answer: The inhibition in vivo at 1 mg/kg was 87%.

Question: And the inhibition in vivo at 1 mg/kg (Rattus norvegicus [6])?
Answer: Its inhibition in vivo at 1 mg/kg is 33%.

Question: For `CC(C)(O)/C=C/C(=O)[C@](C)(O)[C@H]1[C@H](O)C[C@@]2(C)[C@@H]3CC=C4[C@@H](C=C(O[C@@H]5O[C@H](CO)[C@@H](O)[C@H](O)[C@H]5O)C(=O)C4(C)C)[C@]3(C)CC[C@]12C`, which inhibition (Mus musculus [7]) is on record?
Answer: The inhibition was “Dose-dependent effect”.

Question: What about the inhibition in vivo at 0.5 mg/kg (Rattus norvegicus [8]) of the same compound?
Answer: The inhibition in vivo at 0.5 mg/kg was 38%.

Question: What about the inhibition in vivo at 0.1 mg/kg (Rattus norvegicus [9]) of the same compound?
Answer: Its inhibition in vivo at 0.1 mg/kg is 13%.

Question: And the inhibition in vivo at 0.1 mg/kg (Rattus norvegicus [10])?
Answer: Its inhibition in vivo at 0.1 mg/kg is 73%.

Question: What about the inhibition in vivo at 0.5 mg/kg (Mus musculus [11]) of the same compound?
Answer: Its inhibition in vivo at 0.5 mg/kg is 89%.

Question: And the inhibition in vivo at 0.1 mg/kg (Mus musculus [12])?
Answer: Its inhibition in vivo at 0.1 mg/kg is 84%.

Question: What about the inhibition in vivo at 0.5 mg/kg (Rattus norvegicus [13]) of the same compound?
Answer: The inhibition in vivo at 0.5 mg/kg was 58%.

Question: And the inhibition (Rattus norvegicus [14])?
Answer: Its inhibition is “Dose-dependent effect”.

Question: And the inhibition in vivo at 0.1 mg/kg (Rattus norvegicus [15])?
Answer: Its inhibition in vivo at 0.1 mg/kg is 12%.

Question: And the inhibition in vivo at 0.5 mg/kg (Rattus norvegicus [16])?
Answer: The inhibition in vivo at 0.5 mg/kg was 40%.

Question: And the inhibition in vivo at 0.1 mg/kg (Rattus norvegicus [17])?
Answer: The inhibition in vivo at 0.1 mg/kg was 72%.

Question: And the inhibition in vivo at 0.1 mg/kg (Rattus norvegicus [18])?
Answer: The inhibition in vivo at 0.1 mg/kg was 40%.

Question: And the inhibition in vivo at 0.5 mg/kg (Mus musculus [19])?
Answer: The inhibition in vivo at 0.5 mg/kg was 92%.

Question: What about the inhibition in vivo at 0.1 mg/kg (Mus musculus [20]) of the same compound?
Answer: Its inhibition in vivo at 0.1 mg/kg is 88%.

Question: And the inhibition in vivo at 0.1 mg/kg (Rattus norvegicus [21])?
Answer: The inhibition in vivo at 0.1 mg/kg was 60%.

Question: What about the inhibition in vivo at 0.05 mg/kg (Mus musculus [22]) of the same compound?
Answer: The inhibition in vivo at 0.05 mg/kg was 80%.

Question: What about the inhibition (Mus musculus [23]) of the same compound?
Answer: Its inhibition is “Dose-dependent effect”.

Question: And the inhibition in vivo at 0.5 mg/kg (Rattus norvegicus [24])?
Answer: The inhibition in vivo at 0.5 mg/kg was 84%.

Question: And the inhibition in vivo at 0.5 mg/kg (Rattus norvegicus [25])?
Answer: The inhibition in vivo at 0.5 mg/kg was 80%.

Question: And the inhibition in vivo at 0.5 mg/kg (Rattus norvegicus [26])?
Answer: The inhibition in vivo at 0.5 mg/kg was 84%.

Question: And the inhibition in vivo at 0.05 mg/kg (Mus musculus [27])?
Answer: The inhibition in vivo at 0.05 mg/kg was 86%.

Question: With `CC(=O)Oc1ccccc1C(=O)O` as the compound, how does the inhibition in vivo at 200 mg/kg (Mus musculus [28]) read?
Answer: Its inhibition in vivo at 200 mg/kg is 60%.

Question: And the inhibition in vivo at 200 mg/kg (Mus musculus [29])?
Answer: Its inhibition in vivo at 200 mg/kg is 62%.
